Assay results published in paper PMC7604503, “Cyclic peptides can engage a single binding pocket through highly divergent modes” (Proceedings of the National Academy of Sciences of the …, 2020).
Where a SMILES comes first, the peptide text is derived from it. Bridges are numbered along the chain shown (N, C = ends).

Legend:
[1] = test system: BD1 domains (BRD2-BD1, BRD3-BD1, BRD4-BD1); experiment: SPR binding, stated for the BD1 domains together; set-up: species or system human
Method: We next assessed the ability of each of the three lead peptides to bind BRD3-BD1. […] To assess selectivity for other BET BDs, we used SPR to determine the binding affinity of each peptide toward the remaining BDs from BRD2, BRD3, and BRD4 (Fig. 1B). […]
Peptides were synthesised as C-terminal amides using standard fluorenylmethyloxycarbonyl (Fmoc)-strategy solid-phase chemistry using a Syro I automated synthesiser (Biotage) and NovaPEG Rink Amide resin (Novabiochem). Couplings were performed with HBTU/HOBt (1:1) and 6 equivalents of each amino acid. Double couplings were performed for arginine residues.
Following the final amino acid coupling reaction, the Fmoc group was removed and resin incubated with N-(chloroacetoxy)succinimide (0.2 M in DMF, 1 h, RT). Resin was washed with DMF (5 times) and DCM (5 times) and dried in vacuo.
Linear peptides were cleaved from the resin by incubation (3 h, RT) with a trifluoroacetic acid (TFA) cleavage cocktail (TFA/2,2’-(ethylenedioxy)diethanethiol/triisopropyl silane/H2O (92.5:2.5:2.5:2.5)) before filtration, concentration in vacuo and precipitation with ice-cold diethyl ether. Crude peptides were washed with diethyl ether (5 times), dried and resuspended in DMSO. The pH was raised to >8 using triethylamine to allow cyclisation. Following incubation (1 h, RT), peptides were re-acidified with TFA for purification.
Crude peptides were purified by reverse-phase high-performance liquid chromatography using a Chromolith Prep column (Merck) on a Prominence LC-20AP system (Shimadzu) (Solvent A: 0.1% TFA in H2O, Solvent B: 0.1% TFA in acetonitrile) to >95% purity as determined by mass spectrometry (Fig. S17). Purified peptides were reconstituted in DMSO and concentrations determined from their absorbance at 280 nm in 5% DMSO using predicted extinction coefficients.
Surface plasmon resonance (SPR)
Measurements were conducted on a T200 or S200 (GE Healthcare) and data analysed using the Biacore Insight Evaluation Software. Experiments were performed at 4 °C in single cycle kinetics mode. Biotinylated BET bromodomains were immobilised on a CAP chip (GE Healthcare) with a […]
pH 7.5 was used as the running buffer. […]

[2] = biological target: SMARCA4 (Homo sapiens, UniProt P51532); conditions: compound concentration 1000 nM; lower percentage control = stronger affinity
[3] = biological target: T1, EP300 (Homo sapiens, UniProt Q09472); experiment: BROMOscan competition binding assay (BromoMAX, Eurofins DiscoverX); conditions: for Percent Control EP300: compound concentration 1000 nM, lower percentage control = stronger affinity
T1 construct: purchased Eurofins DiscoverX (BROMOscan, BromoMAX)

[4] = test system: other BD families (non-BET BDs); experiment: BROMOscan competition binding assay, stated for the non-BET bromodomains together; set-up: species or system human; conditions: peptide concentration 1 μM
Source text: Again, remarkable specificity was observed.

[5] = biological target: T2, SMARCA2 (Homo sapiens, UniProt P51531); experiment: BROMOscan competition binding assay (BromoMAX, Eurofins DiscoverX); conditions: for Percent Control SMARCA2: compound concentration 1000 nM, lower percentage control = stronger affinity
T2 construct: purchased Eurofins DiscoverX (BROMOscan, BromoMAX)

[6] = biological target: T3, BRD2-BD2 (Homo sapiens, UniProt P25440); experiment: 15N-HSQC NMR titration, CSPs fitted to 1:1 binding model; conditions: 15N-HSQC titration, simple 1:1 binding model; read-out: binding affinity for BRD2-BD2 from CSP data
T3 construct: human BRD2 (BD1: 65-194; BD2: 347-455); Avi tag (biotinylated); made in house; host or cells: E. coli BL21(DE3)
T3 sequence (P25440 347-455): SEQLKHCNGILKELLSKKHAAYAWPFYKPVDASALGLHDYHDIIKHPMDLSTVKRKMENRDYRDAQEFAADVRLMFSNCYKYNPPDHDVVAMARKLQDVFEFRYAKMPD
Source text: (G) Overlaid section of 15N-HSQC spectra of BRD2-BD2 alone (red) or in the presence of one (yellow), two (blue), or three (green) molar equivalents of Signals that undergo the greatest CSPs in the titration are labelled in the protein alone spectrum. Binding curves were derived by tracking the combined 15N/1H chemical shift perturbations of the signals undergoing the greatest CSPs. The data were fitted to a simple 1:1 Langmuir binding isotherm using Graphpad.

T2 sequence (P51531 whole entry): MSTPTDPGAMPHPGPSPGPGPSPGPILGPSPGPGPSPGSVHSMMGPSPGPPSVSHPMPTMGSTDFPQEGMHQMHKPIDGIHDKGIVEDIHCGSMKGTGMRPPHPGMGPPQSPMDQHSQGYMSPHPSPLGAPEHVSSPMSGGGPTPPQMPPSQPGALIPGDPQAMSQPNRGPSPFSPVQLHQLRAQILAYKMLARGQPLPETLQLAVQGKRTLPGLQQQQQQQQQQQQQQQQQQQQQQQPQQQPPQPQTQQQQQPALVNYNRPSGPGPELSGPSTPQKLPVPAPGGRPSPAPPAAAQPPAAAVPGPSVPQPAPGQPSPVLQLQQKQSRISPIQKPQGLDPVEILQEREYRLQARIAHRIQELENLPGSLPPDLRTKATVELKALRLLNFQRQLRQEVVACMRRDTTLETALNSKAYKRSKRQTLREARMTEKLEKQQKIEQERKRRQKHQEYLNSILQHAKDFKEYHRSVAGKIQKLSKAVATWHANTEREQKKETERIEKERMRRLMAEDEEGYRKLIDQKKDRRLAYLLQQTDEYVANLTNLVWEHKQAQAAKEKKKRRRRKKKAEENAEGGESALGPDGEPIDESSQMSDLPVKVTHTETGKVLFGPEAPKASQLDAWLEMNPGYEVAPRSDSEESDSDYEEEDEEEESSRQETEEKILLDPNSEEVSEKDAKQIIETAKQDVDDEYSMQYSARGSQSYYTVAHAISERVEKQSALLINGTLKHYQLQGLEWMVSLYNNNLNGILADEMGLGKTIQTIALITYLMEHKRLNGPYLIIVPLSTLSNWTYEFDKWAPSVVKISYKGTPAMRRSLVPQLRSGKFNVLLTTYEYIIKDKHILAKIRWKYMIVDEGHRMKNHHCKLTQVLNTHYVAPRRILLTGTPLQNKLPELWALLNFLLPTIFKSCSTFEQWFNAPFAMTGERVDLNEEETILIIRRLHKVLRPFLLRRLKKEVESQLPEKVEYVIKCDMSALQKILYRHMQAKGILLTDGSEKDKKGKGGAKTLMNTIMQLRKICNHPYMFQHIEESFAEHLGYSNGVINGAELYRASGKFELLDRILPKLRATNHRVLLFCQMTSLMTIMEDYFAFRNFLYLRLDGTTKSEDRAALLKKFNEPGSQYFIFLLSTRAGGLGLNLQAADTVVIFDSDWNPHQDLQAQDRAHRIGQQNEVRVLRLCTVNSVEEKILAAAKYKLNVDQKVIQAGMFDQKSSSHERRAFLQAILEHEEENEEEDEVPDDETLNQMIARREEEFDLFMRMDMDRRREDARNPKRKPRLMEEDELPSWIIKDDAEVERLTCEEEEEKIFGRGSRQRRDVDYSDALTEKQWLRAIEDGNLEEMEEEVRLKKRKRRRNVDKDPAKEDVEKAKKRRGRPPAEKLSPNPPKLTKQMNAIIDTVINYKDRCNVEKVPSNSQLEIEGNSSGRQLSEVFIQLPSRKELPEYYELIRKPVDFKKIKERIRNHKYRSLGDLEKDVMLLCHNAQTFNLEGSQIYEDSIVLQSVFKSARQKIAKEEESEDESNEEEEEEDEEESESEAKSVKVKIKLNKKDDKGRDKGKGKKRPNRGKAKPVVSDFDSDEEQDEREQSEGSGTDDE
T1 sequence (Q09472 whole entry): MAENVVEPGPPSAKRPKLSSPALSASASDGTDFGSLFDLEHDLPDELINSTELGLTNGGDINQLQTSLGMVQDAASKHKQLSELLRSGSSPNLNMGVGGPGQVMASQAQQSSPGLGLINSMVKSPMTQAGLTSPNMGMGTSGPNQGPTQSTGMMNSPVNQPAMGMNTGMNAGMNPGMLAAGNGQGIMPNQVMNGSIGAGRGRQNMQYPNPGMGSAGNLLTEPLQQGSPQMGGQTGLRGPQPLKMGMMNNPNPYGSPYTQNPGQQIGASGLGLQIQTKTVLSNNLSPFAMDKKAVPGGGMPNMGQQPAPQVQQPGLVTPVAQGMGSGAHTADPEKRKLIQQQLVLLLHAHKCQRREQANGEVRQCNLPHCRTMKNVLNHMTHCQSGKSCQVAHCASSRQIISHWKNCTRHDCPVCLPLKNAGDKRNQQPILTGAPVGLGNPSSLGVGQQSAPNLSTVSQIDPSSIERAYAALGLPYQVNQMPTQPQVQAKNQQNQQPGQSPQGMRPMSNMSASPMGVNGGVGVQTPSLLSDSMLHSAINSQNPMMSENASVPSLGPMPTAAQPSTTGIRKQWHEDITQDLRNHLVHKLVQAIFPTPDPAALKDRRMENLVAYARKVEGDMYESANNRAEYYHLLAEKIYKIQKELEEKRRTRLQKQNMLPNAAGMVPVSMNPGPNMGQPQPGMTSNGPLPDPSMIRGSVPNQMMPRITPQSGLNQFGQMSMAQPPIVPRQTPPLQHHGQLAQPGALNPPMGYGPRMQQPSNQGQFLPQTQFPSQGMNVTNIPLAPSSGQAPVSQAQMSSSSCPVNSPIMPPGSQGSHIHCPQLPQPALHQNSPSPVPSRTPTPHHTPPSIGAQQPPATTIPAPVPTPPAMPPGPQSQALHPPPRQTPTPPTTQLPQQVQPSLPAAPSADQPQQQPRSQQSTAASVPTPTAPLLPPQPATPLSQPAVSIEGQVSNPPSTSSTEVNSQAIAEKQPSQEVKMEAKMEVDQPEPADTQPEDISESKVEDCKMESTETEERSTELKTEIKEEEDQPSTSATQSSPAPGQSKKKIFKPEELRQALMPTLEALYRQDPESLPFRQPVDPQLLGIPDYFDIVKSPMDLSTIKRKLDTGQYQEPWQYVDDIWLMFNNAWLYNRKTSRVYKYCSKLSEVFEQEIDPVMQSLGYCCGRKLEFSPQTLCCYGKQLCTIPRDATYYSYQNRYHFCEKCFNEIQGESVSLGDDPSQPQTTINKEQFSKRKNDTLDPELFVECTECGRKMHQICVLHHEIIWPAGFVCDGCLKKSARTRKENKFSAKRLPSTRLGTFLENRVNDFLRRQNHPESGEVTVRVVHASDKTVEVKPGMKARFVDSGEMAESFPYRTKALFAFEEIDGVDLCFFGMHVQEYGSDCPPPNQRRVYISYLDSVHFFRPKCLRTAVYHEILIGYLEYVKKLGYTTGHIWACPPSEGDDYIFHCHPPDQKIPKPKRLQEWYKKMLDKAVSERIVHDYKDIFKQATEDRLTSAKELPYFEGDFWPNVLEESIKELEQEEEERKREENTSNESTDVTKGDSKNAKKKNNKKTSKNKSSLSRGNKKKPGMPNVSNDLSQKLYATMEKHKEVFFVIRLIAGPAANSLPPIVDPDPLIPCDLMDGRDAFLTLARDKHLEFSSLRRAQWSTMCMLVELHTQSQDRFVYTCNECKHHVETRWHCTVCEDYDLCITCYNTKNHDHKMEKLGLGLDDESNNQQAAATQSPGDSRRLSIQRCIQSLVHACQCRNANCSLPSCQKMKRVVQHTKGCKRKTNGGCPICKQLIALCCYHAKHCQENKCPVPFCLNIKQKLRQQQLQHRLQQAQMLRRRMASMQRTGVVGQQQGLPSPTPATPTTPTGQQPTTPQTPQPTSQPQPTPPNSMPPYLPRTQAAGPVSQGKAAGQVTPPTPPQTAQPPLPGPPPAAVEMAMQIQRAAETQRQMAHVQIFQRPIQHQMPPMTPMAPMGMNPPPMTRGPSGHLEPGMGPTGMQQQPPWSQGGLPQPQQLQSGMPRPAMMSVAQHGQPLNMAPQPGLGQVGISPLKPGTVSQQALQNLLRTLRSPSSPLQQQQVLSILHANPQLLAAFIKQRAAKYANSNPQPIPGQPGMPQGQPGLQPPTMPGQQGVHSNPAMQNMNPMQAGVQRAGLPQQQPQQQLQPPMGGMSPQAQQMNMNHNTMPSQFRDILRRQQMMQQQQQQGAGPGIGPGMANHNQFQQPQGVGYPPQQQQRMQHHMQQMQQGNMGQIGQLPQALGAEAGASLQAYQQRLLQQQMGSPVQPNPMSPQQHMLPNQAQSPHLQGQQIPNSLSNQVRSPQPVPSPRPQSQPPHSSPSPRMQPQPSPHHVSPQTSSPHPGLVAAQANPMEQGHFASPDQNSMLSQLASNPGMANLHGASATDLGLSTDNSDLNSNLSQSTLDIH

Compound | affinity for BRD2-BD1 and BRD4-BD1 within a factor of the affinity for BRD3-BD1 [1] [factor] | Percent Control SMARCA4 [2] [%] | Percent Control EP300 [3] [%] | binding to other (non-BET) BD families (in words) [4] | Percent Control SMARCA2 [5] [%] | Kd [6] [µM] | remaining binding at 1 µM ([3]; read-out: Percent Control EP300) [%] | percent of control binding at 1 µM [5] [%]
CC[C@H](C)[C@@H]1NC(=O)[C@H]([C@@H](C)O)NC(=O)[C@H](CCCCN)NC(=O)[C@H](Cc2c[nH]c3ccccc23)NC(=O)CSC[C@@H](C(N)=O)NC(=O)[C@H](CCC(N)=O)NC(=O)[C@H](CCCCNC(C)=O)NC(=O)[C@H]([C@@H](C)O)NC(=O)[C@H](CCCNC(=N)N)NC(=O)[C@H](Cc2c[nH]c3ccccc23)NC(=O)[C@H]([C@@H](C)O)NC(=O)[C@H](CCCCNC(C)=O)NC(=O)CNC(=O)[C@H](CCCCNC(C)=O)NC1=O [3.1B] ({CH2CO}-WKTIK(Ac)GK(Ac)TWRTK(Ac)QC-NH2; thioether N-14) | 2 to 4 | 77 | 100 | almost no binding | 34 | ~300 | – | –
CC[C@H](C)[C@H](NC(=O)[C@H](CCCNC(=N)N)NC(=O)[C@H](CCCCNC(C)=O)NC(=O)[C@H](CCCNC(=N)N)NC(=O)[C@H](CC(C)C)NC(=O)[C@@H]1CSCC(=O)N[C@@H](Cc2c[nH]c3ccccc23)C(=O)N[C@@H](CCCCNC(C)=O)C(=O)NCC(=O)N[C@@H](Cc2ccc(O)cc2)C(=O)N[C@@H](CC(C)C)C(=O)N1)C(=O)N[C@@H](CCC(N)=O)C(=O)N[C@@H](CCCNC(=N)N)C(=O)N[C@H](C(=O)N[C@@H](Cc1ccc(O)cc1)C(=O)N[C@@H](CC(N)=O)C(N)=O)[C@@H](C)O [4.2C] ({CH2CO}-WK(Ac)GYLCLRK(Ac)RIQRTYN-NH2; thioether N-6) | – | – | – | – | – | – | 100 | 36
CC[C@H](C)[C@@H]1NC(=O)[C@H](Cc2c[nH]c3ccccc23)NC(=O)[C@H](Cc2c[nH]c3ccccc23)NC(=O)CSC[C@@H](C(N)=O)NC(=O)CNC(=O)[C@H](CCCCNC(C)=O)NC(=O)[C@H](CCCCN)NC(=O)[C@H](C(C)C)NC(=O)[C@H](CCCCNC(C)=O)NC(=O)[C@@H]2CCCN2C(=O)[C@H]([C@@H](C)CC)NC1=O [3.1C] ({CH2CO}-WWIIPK(Ac)VKK(Ac)GC-NH2; thioether N-11) | 2 to 4 | 87 | 100 | almost no binding | 35 | – | – | –
